In US8865734B2 (priority 2010, dated 2014):
Converted amounts (≈) assume the structure as drawn. Structures can show the parent of a compound that is named as a salt.

Tests used:
[1] = tested on: in vitro grown Mycobacteria (M. tuberculosis); experiment: QUM: Quantification of in vitro grown Mycobacteria (in vitro growth fluorescence assay); assay type: cell-based; conditions: Mycobacterium tuberculosis; MIC, 80% bacterial growth inhibition; in vitro growth; read-out: QUM
In short: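 Mycobacterium tuberculosis grown in vitro was quantified by fluorescence across compound dose responses. MIC is defined as the minimum concentration producing 80% growth inhibition.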

[2] = tested on: M. tuberculosis inside the host macrophage; experiment: QIM: Quantification of Intracellular Mycobacteria (intracellular growth assay, phenotypic cell-based); conditions: Mycobacterium tuberculosis; MIC, 80% bacterial growth inhibition; intracellular growth; read-out: QIM
In short: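 Phenotypic high-content assay measuring M. tuberculosis multiplication inside host macrophages, run as dose response. MIC is the minimum compound concentration giving 80% bacterial growth inhibition.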

Compound | MIC [1] [µM] | melting point [°C] | MIC [2] [µM]
CCc1nc2cc(Cl)ccn2c1C(=O)NCc1ccc(N2CCC(C(N)=O)CC2)cc1 [Compound 344, N-(4-(4-Carbamoylpiperidin-1-yl)benzyl)-7-chloro-2-ethylimidazo[1,2-a]pyridine-3-carboxamide] | 1 to 20 (≈ 0.44 to 8.8 µg/mL) | 244 | 
CCc1nc2cc(C(F)(F)F)ccn2c1C(=O)NCc1ccc(N2CCOCC2)cc1 [Compound 322, 2-Ethyl-N-(4-morpholinobenzyl)-7-(trifluoromethyl)imidazo[1,2-a]pyridine-3-carboxamide] | 1 to 20 (≈ 0.432 to 8.65 µg/mL) | 174.1 | 
CCc1nc2ccc(Cl)cn2c1C(=O)NCc1ccc(N2CCC(C(N)=O)CC2)cc1 [Compound 343, N-(4-(4-Carbamoylpiperidin-1-yl)benzyl)-6-chloro-2-ethylimidazo[1,2-a]pyridine-3-carboxamide] | < 1 | 257.5 | 
CCc1nc2ccc(Cl)cn2c1C(=O)NCC(C)C [Compound 247, 6-Chloro-2-ethyl-N-isobutylimidazo[1,2-a]pyridine-3-carboxamide] | > 20 | 162.2 | 
CCc1nc2ccc(C)cn2c1C(=O)NCc1ccc(N2CCN(c3ccc(F)cc3)CC2)cc1 [Compound 308, 2-Ethyl-N-(4-(4-(4-fluorophenyl)piperazin-1-yl)benzyl)-6-methylimidazo[1,2-a]pyridine-3-carboxamide] | < 1 | 187.6 | 
CCc1nc2ccc(Cl)cn2c1C(=O)NCc1ccc(N2CCC(CO)CC2)cc1 [Compound 279, 6-Chloro-2-ethyl-N-(4-(4-(hydroxymethyl)piperidin-1-yl)benzyl)imidazo[1,2-a]pyridine-3-carboxamide] | > 20 | 161.1 | 
CCc1nc2ccc(Cl)cn2c1C(=O)NCc1ccc(N2CCC(c3ccccc3)CC2)cc1 [Compound 284, 6-Chloro-2-ethyl-N-(4-(4-phenylpiperidin-1-yl)benzyl)imidazo[1,2-a]pyridine-3-carboxamide] | < 1 | 138.2 | 
CCc1nc2ccc(Cl)cn2c1C(=O)NCc1ccc(N2CCN3CCCC3C2)cc1 (centres unmarked) [Compound 266, 6-Chloro-2-ethyl-N-(4-(hexahydropyrrolo[1,2-a]pyrazin-2(1H)-yl)benzyl)imidazo[1,2-a]pyridine-3-carboxamide] | > 20 | 163 | 
CCc1nc2cc(Cl)ccn2c1C(=O)NCc1ccc(N2CCN(c3ccc(F)cc3)CC2)cc1 (as salt: hydrochloride) [Compound 177, 7-Chloro-2-ethyl-N-(4-(4-(4-fluorophenyl)piperazin-1-yl)benzyl)imidazo[1,2-a]pyridine-3-carboxamide trihydrochloride] |  | 204.4 to 206.9 | 
CCc1nc2cc(Cl)ccn2c1C(=O)NCc1ccc(N2CCC(c3ccccc3)CC2)cc1 [Compound 283, 7-Chloro-2-ethyl-N-(4-(4-phenylpiperidin-1-yl)benzyl)imidazo[1,2-a]pyridine-3-carboxamide] | < 1 | 164.5 | 
CCc1nc2ccc(Br)cn2c1C(=O)NCc1ccc(OCc2ccc(OC(F)(F)F)cc2)cc1 [Compound 259, 6-Bromo-2-ethyl-N-(4-(4-(trifluoromethoxy)benzyloxy)benzyl)imidazo[1,2-a]pyridine-3-carboxamide] | < 1 | 189.7 | 
CCc1nc2ccc(OC)cn2c1C(=O)NCc1ccc(N2CCN(c3ccc(F)cc3)CC2)cc1 [Compound 112, 2-Ethyl-N-(4-(4-(4-fluorophenyl)piperazin-1-yl)benzyl)-6-methoxyimidazo[1,2-a]pyridine-3-carboxamide] | < 1 | 173.8 | 
CCc1nc2ccccn2c1C(=O)NCc1ccc(OCc2ccc(OC(F)(F)F)cc2)cc1 [Compound 260, 2-Ethyl-N-(4-(4-(trifluoromethoxy)benzyloxy)benzyl)imidazo[1,2-a]pyridine-3-carboxamide] | < 1 | 138.7 | 
CCc1nc2ccc(C(F)(F)F)cn2c1C(=O)NCc1ccc(N2CCOCC2)cc1 [Compound 321, 2-Ethyl-N-(4-morpholinobenzyl)-6-(trifluoromethyl)imidazo[1,2-a]pyridine-3-carboxamide] | < 1 | 207.6 | 
CCc1nc2ccc(Cl)cn2c1C(=O)NCc1ccc(N2CCC(COc3ccc(OC(F)(F)F)cc3)CC2)cc1 [Compound 298, 6-chloro-2-ethyl-N-(4-(4-((4-(trifluoromethoxy)phenoxy)methyl)piperidin-1-yl)benzyl)imidazo[1,2-a]pyridine-3-carboxamide] | < 1 | 183.6 | 
CCc1nc2ccc(Cl)cn2c1-c1nc(Cc2ccc(Oc3ccc(F)cc3)cc2)no1 [Compound 245, 5-(6-Chloro-2-ethylimidazo[1,2-a]pyridin-3-yl)-3-(4-(4-fluorophenoxy)benzyl)-1,2,4-oxadiazole] | 1 to 20 (≈ 0.449 to 8.98 µg/mL) | 129.9 | 
CCc1nc2ccc(Br)cn2c1C(=O)NCc1ccc(Oc2ccc(OC(F)(F)F)cc2)cc1 [Compound 254, 6-Bromo-2-ethyl-N-(4-(4-(trifluoromethoxy)phenoxy)benzyl)imidazo[1,2-a]pyridine-3-carboxamide] | < 1 | 152.9 | 

Compound | MIC [1] [µM] | melting point [°C] | MIC [2] [µM]
CCc1nc2c(OC(F)F)cccn2c1C(=O)NCc1ccc(N2CCOCC2)cc1 [Compound 319, 8-(Difluoromethoxy)-2-ethyl-N-(4-morpholinobenzyl)imidazo[1,2-a]pyridine-3-carboxamide] | 1 to 20 (≈ 0.43 to 8.61 µg/mL) | 163 | 
CCc1nc2ccc(Cl)cn2c1C(=O)NCc1ccc(N2CCC(F)(F)CC2)cc1 [Compound 277, 6-chloro-N-(4-(4,4-difluoropiperidin-1-yl)benzyl)-2-ethylimidazo[1,2-a]pyridine-3-carboxamide] | 1 to 20 (≈ 0.433 to 8.66 µg/mL) | 194.2 | 
CCc1nc2cc(Cl)ccn2c1C(=O)NCc1ccc(N2CCC(C)(C)CC2)cc1 [Compound 274] | < 1 | 121.3 | 
CCc1nc2c(F)cccn2c1C(=O)NCc1ccc(Oc2ccc(OC(F)(F)F)cc2)cc1 [Compound 257, 2-Ethyl-8-fluoro-N-(4-(4-(trifluoromethoxy)phenoxy)benzyl)imidazo[1,2-a]pyridine-3-carboxamide] | < 1 | 105.6 | 
CCc1nc2cc(Cl)ccn2c1C(=O)NCc1ccc(N2CCC(c3ccc(Cl)cc3)CC2)cc1 [Compound 338, 7-Chloro-N-(4-(4-(4-chlorophenyl)piperidin-1-yl)benzyl)-2-ethylimidazo[1,2-a]pyridine-3-carboxamide] | < 1 | 177 | 
CCNC(=O)c1c(CC)nc2ccc(Cl)cn12 [Compound 246, 6-Chloro-N,2-diethylimidazo[1,2-a]pyridine-3-carboxamide] | > 20 | 176.7 | 
CCc1nc2ccc(Cl)cn2c1C(=O)NCc1ccc(N2CCC(C(F)(F)F)CC2)cc1 [Compound 275, 6-Chloro-2-ethyl-N-(4-(4-(trifluoromethyl)piperidin-1-yl)benzyl)imidazo[1,2-a]pyridine-3-carboxamide] | 1 to 20 (≈ 0.465 to 9.3 µg/mL) | 197.9 | 
CCc1nc2cc(Cl)ccn2c1C(=O)NCc1ccc(N2CCC(C(F)(F)F)CC2)cc1 [Compound 276, 7-Chloro-2-ethyl-N-(4-(4-(trifluoromethyl)piperidin-1-yl)benzyl)imidazo[1,2-a]pyridine-3-carboxamide] | > 20 | 209.4 | 
CCc1nc2ccc(Cl)cn2c1C(=O)NCc1ccc(N2CCOCC2)c(Cl)c1 [Compound 349, 6-Chloro-N-(3-chloro-4-morpholinobenzyl)-2-ethylimidazo[1,2-a]pyridine-3-carboxamide] | < 1 | 175.5 | 
CCc1nc2ccc(F)cn2c1C(=O)NCc1ccc(Oc2ccc(OC(F)(F)F)cc2)cc1 [Compound 253, 2-Ethyl-6-fluoro-N-(4-(4-(trifluoromethoxy)phenoxy)benzyl)imidazo[1,2-a]pyridine-3-carboxamide] | < 1 | 133.4 | 
CCc1nc2cc(Cl)ccn2c1C(=O)NCc1ccc(N2CCC(F)(F)CC2)cc1 [Compound 278, 7-Chloro-N-(4-(4,4-difluoropiperidin-1-yl)benzyl)-2-ethylimidazo[1,2-a]pyridine-3-carboxamide] | 1 to 20 (≈ 0.433 to 8.66 µg/mL) | 166.3 | 
CCc1nc2c(C(F)(F)F)cccn2c1C(=O)NCc1ccc(N2CCOCC2)cc1 [Compound 323, 2-Ethyl-N-(4-morpholinobenzyl)-8-(trifluoromethyl)imidazo[1,2-a]pyridine-3-carboxamide] | 1 to 20 (≈ 0.432 to 8.65 µg/mL) | 200.6 | 
CCc1nc2cc(Cl)ccn2c1C(=O)NCc1ccc(-c2ccc(C#N)cc2C)cc1 [Compound 132, 7-Chloro-N-((4′-cyano-2′-methylbiphenyl-4-yl)methyl)-2-ethylimidazo[1,2-a]pyridine-3-carboxamide] | < 1 |  | < 1
CCc1nc2ccc(Cl)cn2c1C(=O)NCc1ccc(-c2ccccc2C)cc1 [Compound 84, 6-Chloro-2-ethyl-N-((2′-methylbiphenyl-4-yl)methyl)imidazo[1,2-a]pyridine-3-carboxamide] | < 1 |  | < 1
Cc1nc2c(C(F)(F)F)cccn2c1C(=O)NCc1ccccc1 [Compound 40, N-Benzyl-2-methyl-8-(trifluoromethyl)imidazo[1,2-a]pyridine-3-carboxamide] | > 20 |  | > 20
CCc1nc2cnccn2c1C(=O)NCc1ccc(-c2ccc(Cl)cc2)cc1 [Compound 141, N-((4′-Chlorobiphenyl-4-yl)methyl)-2-ethylimidazo[1,2-a]pyrazine-3-carboxamide] | < 1 |  | < 1
